Reference: ChEMBL document CHEMBL1201862, “PubChem BioAssay data set” (2004)
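Grown in 96-well plates, cells were treated for 48 hours with each compound at five concentrations. Insufficient inhibition: endpoint recorded as highest concentration tested. Here, GI50 denotes the concentration required for 50% inhibition of growth.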 Calls of active or inactive are those of the source. Rule as the data show it: active = GI50 up to about 1.1 µM and inactive = higher.

Key:
Assay in all cases: NCI-60 cell line screen, 48 h
[1] = system: CAKI-1
[2] = system: CCRF-CEM
[3] = system: COLO 205
[4] = system: HCT-116
[5] = system: HCT-15
[6] = system: HL-60
[7] = system: HOP-92
[8] = system: HT-29
[9] = system: K562
[10] = system: MDA-N
[11] = system: MOLT-4
[12] = system: NCI-H226
[13] = system: NCI/ADR-RES
[14] = system: OVCAR-8
[15] = system: PC-3
[16] = system: RPMI-8226
[17] = system: SNB-19
[18] = system: SW-620
[19] = system: U-251

| SMILES | GI50 [1] | GI50 [2] | GI50 [3] | GI50 [4] | GI50 [5] [µM] | GI50 [6] | GI50 [7] | GI50 [8] | GI50 [9] | GI50 [10] | GI50 [11] | GI50 [12] | GI50 [13] | GI50 [14] | GI50 [15] | GI50 [16] | GI50 [17] | GI50 [18] | GI50 [19] |
| --- | --- | --- | --- | --- | --- | --- | --- | --- | --- | --- | --- | --- | --- | --- | --- | --- | --- | --- | --- |
| C/C(CC(O)(C(F)(F)F)C(F)(F)F)=N\NC(N)=S | > 10 µM (inactive) | > 10 µM (inactive) | > 10 µM (inactive) | > 10 µM (inactive) | > 10 | > 10 µM (inactive) | > 10 µM (inactive) | > 10 µM (inactive) | > 10 µM (inactive) | > 10 µM (inactive) | > 10 µM (inactive) | > 10 µM (inactive) | > 10 µM (inactive) | > 10 µM (inactive) | > 10 µM (inactive) | > 10 µM (inactive) | > 10 µM (inactive) | > 10 µM (inactive) | > 10 µM (inactive) |
| CC(C)(C)OC(=O)N1CC(CCl)c2ccc(O)cc21 (centres undefined) | 2.97 µM (inactive) | 1.29 µM (inactive) | 1.81 µM (inactive) | 2.64 µM (inactive) | 2.59 | 1.87 µM (inactive) | 2.42 µM (inactive) | 3.15 µM (inactive) | 2.87 µM (inactive) | 1.86 µM (inactive) | 1.3 µM (inactive) | 2.06 µM (inactive) | 1.59 µM (inactive) | 3.59 µM (inactive) | 1.87 µM (inactive) | 1.75 µM (inactive) | 3.32 µM (inactive) | 2.59 µM (inactive) | 3.15 µM (inactive) |
| COCOC1/C=C/CCCCC(=O)C(C)C#CC1 (centres undefined) | 5.09 µM (inactive) | 1.87 µM (inactive) | 2.51 µM (inactive) | 1.86 µM (inactive) | 2.36 | 1.71 µM (inactive) | 3.1 µM (inactive) | 3.37 µM (inactive) | 2.97 µM (inactive) | 11.5 µM (inactive) | 2.09 µM (inactive) | 17.2 µM (inactive) | 4.18 µM (inactive) | 4.18 µM (inactive) | 11.4 µM (inactive) | 1.46 µM (inactive) | 17.8 µM (inactive) | 1.89 µM (inactive) | 14.4 µM (inactive) |
| CCOC(=O)NC(OCCN(C)C)(C(F)(F)F)C(F)(F)F | > 100 µM (inactive) | > 100 µM (inactive) | > 100 µM (inactive) | > 100 µM (inactive) | > 100 | > 100 µM (inactive) | > 100 µM (inactive) | > 100 µM (inactive) | > 100 µM (inactive) | > 100 µM (inactive) | > 100 µM (inactive) | > 100 µM (inactive) | > 100 µM (inactive) | > 100 µM (inactive) | > 100 µM (inactive) | > 100 µM (inactive) | > 100 µM (inactive) | > 100 µM (inactive) | > 100 µM (inactive) |
| OC(c1cccs1)c1cc2ccccc2s1 (centres undefined) | > 10 µM (inactive) | > 10 µM (inactive) | > 10 µM (inactive) | > 10 µM (inactive) | > 10 | > 10 µM (inactive) | > 10 µM (inactive) | > 10 µM (inactive) | > 10 µM (inactive) | > 10 µM (inactive) | > 10 µM (inactive) | > 10 µM (inactive) | > 10 µM (inactive) | > 10 µM (inactive) | > 10 µM (inactive) | > 10 µM (inactive) | > 10 µM (inactive) | > 10 µM (inactive) | > 10 µM (inactive) |
| O=c1[nH]c2nc[nH]c2c(=O)n1C1CCCCC1 | > 100 µM (inactive) | > 100 µM (inactive) | > 100 µM (inactive) | > 100 µM (inactive) | > 100 | 6.01 µM (inactive) | > 100 µM (inactive) | > 100 µM (inactive) | > 100 µM (inactive) | > 100 µM (inactive) | > 100 µM (inactive) | > 100 µM (inactive) | > 100 µM (inactive) | > 100 µM (inactive) | > 100 µM (inactive) | > 100 µM (inactive) | > 100 µM (inactive) | > 100 µM (inactive) | > 100 µM (inactive) |
| C=CCC1(C#N)C(=S)NC2=C(C(=O)CC(C)(C)C2)C1c1ccccc1 (centres undefined) | 74.3 µM (inactive) | 83.6 µM (inactive) | > 100 µM (inactive) | 59.4 µM (inactive) | 70.1 | > 100 µM (inactive) | 35.1 µM (inactive) | 34.6 µM (inactive) | 82.2 µM (inactive) | 70.6 µM (inactive) | 74.1 µM (inactive) | 71.4 µM (inactive) | 56.9 µM (inactive) | 24 µM (inactive) | 32.2 µM (inactive) | 52.5 µM (inactive) | 31 µM (inactive) | > 100 µM (inactive) | 30.9 µM (inactive) |
| CCNc1cc2c3c(c1)CCN3CCC2 | > 10 µM (inactive) | 4.2 µM (inactive) | > 10 µM (inactive) | > 10 µM (inactive) | > 10 | 3.23 µM (inactive) | > 10 µM (inactive) | > 10 µM (inactive) | 1.72 µM (inactive) | > 10 µM (inactive) | > 10 µM (inactive) | > 10 µM (inactive) | > 10 µM (inactive) | 8.59 µM (inactive) | > 10 µM (inactive) | 3.51 µM (inactive) | > 10 µM (inactive) | 6.3 µM (inactive) | > 10 µM (inactive) |
| C=C(C(=O)O[C@H]1C(=O)C2=C(C)CCC3C(=C)C(=O)O[C@@H]3C2[C@]1(C)O)C1CC[C@]2(C)CCCC(=C)[C@H]2C1 (some centres undefined) | 8.71 µM (inactive) | < 0.01 µM (active) | 8.77 µM (inactive) | 3.28 µM (inactive) | 3.48 | 2 µM (inactive) | 5.08 µM (inactive) | 4.24 µM (inactive) | 6.11 µM (inactive) | 2.71 µM (inactive) | 2.21 µM (inactive) | 17.1 µM (inactive) | 7.38 µM (inactive) | 4.36 µM (inactive) | 5.45 µM (inactive) | 3.46 µM (inactive) | 13.1 µM (inactive) | 7.46 µM (inactive) | 4.94 µM (inactive) |
| COc1ccc(C2C3CCc4ccccc4C3=NN2S(=O)(=O)c2ccc(/C=C/C(=O)O)cc2)cc1 (centres undefined) | 8.93 µM (inactive) | 3.46 µM (inactive) | 2 µM (inactive) | 3.53 µM (inactive) | 0.188 | 3.07 µM (inactive) | 11.6 µM (inactive) | 3.33 µM (inactive) | 2.84 µM (inactive) | 1.42 µM (inactive) | 3.61 µM (inactive) | 5.98 µM (inactive) | 1.75 µM (inactive) | 11 µM (inactive) | 3.98 µM (inactive) | 3.07 µM (inactive) | 7.29 µM (inactive) | 3.18 µM (inactive) | 3.21 µM (inactive) |
| O=[N+]([O-])c1ccc(Oc2c(Cl)cc(S(=O)(=O)N/C(=N\O)Nc3ccc(Cl)cc3)cc2Cl)cc1 | 5.57 µM (inactive) | 8.22 µM (inactive) | 15.1 µM (inactive) | 10.5 µM (inactive) | 11.2 | 2.47 µM (inactive) | 2.31 µM (inactive) | 14.4 µM (inactive) | 13.8 µM (inactive) | 12 µM (inactive) | 6.11 µM (inactive) | 14 µM (inactive) | 12.6 µM (inactive) | 12.6 µM (inactive) | 10.4 µM (inactive) | 5.38 µM (inactive) | 15.2 µM (inactive) | 13.1 µM (inactive) | 13 µM (inactive) |
